Measured values published in patent US11584763B2, “Chromenopyridine derivatives as phosphatidylinositol phosphate kinase inhibitors” (HIBERCELL, INC., priority 2017, dated 2023).

How the values were obtained:
Assay type in all cases: biochemical
PIP4K2B = biological target: T1, PIP4K2B (Homo sapiens, UniProt P78356); assay: Trans-FI P kinase assay PIP4K2B (PIP4KtypeIIB inhibition assay); details: compounds listed under IC50 bin headings; 100 uM GTP; read-out: Trans-FI P kinase assays: PIP4K2B IC50
T1 construct: made in house; host or cells: E. coli
T1 sequence (P78356 1-416): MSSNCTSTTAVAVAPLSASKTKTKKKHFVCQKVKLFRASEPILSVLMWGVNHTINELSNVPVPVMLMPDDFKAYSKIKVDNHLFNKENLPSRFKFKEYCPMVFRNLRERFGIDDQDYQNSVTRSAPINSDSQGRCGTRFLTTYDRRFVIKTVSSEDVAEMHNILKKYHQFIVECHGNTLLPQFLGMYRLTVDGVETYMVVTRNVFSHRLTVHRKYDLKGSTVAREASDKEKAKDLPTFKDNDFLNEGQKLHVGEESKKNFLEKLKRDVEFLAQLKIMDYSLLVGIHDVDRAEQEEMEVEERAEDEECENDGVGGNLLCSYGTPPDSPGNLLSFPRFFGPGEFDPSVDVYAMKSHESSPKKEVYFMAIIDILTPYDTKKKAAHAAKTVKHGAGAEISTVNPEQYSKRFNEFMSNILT
In short: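 GST-tagged human PIP4K2B (5 nM, E. coli-expressed) preincubated 1 h at 27 C with compound (top 4.8 uM, 5% DMSO), then reacted 2 h with 100 uM GTP and 80 uM PI5P/DOPE vesicles in HEPES pH 7.3, MgCl2, Triton X-100. GDP detected by Transcreener FI fluorescence via calibration curve; IC50 from % activity vs log[inhibitor].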

PIP4K 2A [1] = biological target: T2, PIP4K 2A (Homo sapiens, UniProt P48426); assay: Kinase Assay PIP4K2 A (PIP4KtypeIIA inhibition assay); set-up: made in house; host or cells: E. coli; details: compounds listed under IC50 bin headings
T2 sequence (P48426 1-406): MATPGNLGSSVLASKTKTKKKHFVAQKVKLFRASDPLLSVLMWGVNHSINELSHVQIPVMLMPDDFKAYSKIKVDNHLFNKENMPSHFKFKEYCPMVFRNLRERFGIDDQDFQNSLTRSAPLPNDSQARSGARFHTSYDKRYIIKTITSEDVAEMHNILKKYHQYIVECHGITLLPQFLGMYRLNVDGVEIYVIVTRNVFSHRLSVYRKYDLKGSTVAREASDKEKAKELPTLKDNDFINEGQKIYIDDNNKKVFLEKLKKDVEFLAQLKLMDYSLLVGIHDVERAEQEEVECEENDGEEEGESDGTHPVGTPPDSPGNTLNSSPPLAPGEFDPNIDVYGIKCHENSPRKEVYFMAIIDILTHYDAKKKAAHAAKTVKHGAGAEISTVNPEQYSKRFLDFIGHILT
Excerpt: GST tagged PIP4KtypeIIA and B enzymes were overexpressed in E. Coli and purified to >80% homogeneity. Phosphatidyl inositol-5-phosphate (PI5P, Cat. #850152, Avanti Polar Lipids Inc.) was used as the lipid substrate and phosphatidyl ethanolamine (DOPE 18:1, Cat. #850725, Avanti Polar Lipids Inc.) was used as the carrier lipid for assays. Ultrapure ATP and GTP was purchased from Bellbrooke Labs. ADP Glo reagents were obtained from Promega. Transcreener FI reagent was obtained from Bellbrooke labs.
Enzyme preparation: GST-tagged PIP4KtypeIIA (5 uL, 1.43 mg/mL) was diluted (1:10) to 50 uL using HNE buffer. From the 1:10 diluted stock, a 6.4 uL aliquot was diluted further to 5 mL using HNE buffer to yield 5× enzyme stock (2.5 nM).
Lipid Preparation: In a 10 mL pyrex glass vial, 1 ug of PI5P and 1 ug of DOPE were suspended in 2.5 mL of HEPES buffer mix and 2.5 mL of H:E buffer. The contents were mixed and sonicated for 3 min to yield a translucent lipid stock.
Compound Preparation: Compounds were stored as 5 mM stocks in neat DMSO as room temperature in glass vials. 5 mM stocks were diluted to 2 mM and then serially diluted (3×) in neat DMSO in 96 well polypropylene plates. From the serially diluted stocks, 3 uL was delivered into 250 uL of 25% DMSO (in water) to generate 5× compound stocks. Typically, the highest compound conc. was 24 uM.
The assay volume was kept at 25 uL. To each well of the reaction plate, 10 uL of lipid stock (1:1 ratio PI5P:DOPE) was delivered. This was followed by the addition of 5 uL of compound in 25% DMSO. Then, to each well, 5 uL of 2.5 nM (5×) typeIIA enzyme was delivered. The contents were mixed well and incubated for 1 h at 27 C. After 1 h, reaction was initiated by adding 5 uL of 50 uM ATP and the contents were mixed well with a multi-channel pipetteman. The final concentration of the reagents are as follows: 50 mM HEPES, pH 7.3, 10 mM MgCl2, 20 mM NaCl, 0.01% v/v triton-X100, 5% DMSO, 10 uM ATP, 80 uM (2 ug) PI5P, 2 ug DOPE, and 0.5 nM PIP4KIIA. Typically, the highest conc. of compounds was 4.8 uM and the lowest conc. was 0.
After 1 hr, the reaction was quenched by adding 25 uL of ADP Glo reagent. The contents were incubated for 1 hr. Afterwards, 50 uL of kinase detection reagent was delivered. The contents were incubated for another hour. The luminescence was read using Molecular Devices Paradigm plate reader. […] The blanks were averaged and subtracted from all other wells. Using a calibration curve, RLU was converted to uM ADP (product). IC50 was calculated by plotting the residual activity (expressed as % No inhibitor control) vs. log [Inh. conc.]

PIP4K 2A [2] = biological target: T2, PIP4K 2A; assay: ADP-glo kinase assay PIP4K 2A; set-up: 4 nM PIP4K2A (full length protein, SignalChem); purchased SignalChem; details: compounds listed under IC50 bin headings
In short: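 Full-length PIP4K2A was pre-incubated 15 min at RT with compound in 20 mM MOPS pH 7.2, 25 mM MgCl2, 0.005% Tween 20. The enzyme mix held 4 nM kinase and 100 μM PI(5)P diC8, and ATP was added from a 60 μM solution. After 1 h at RT, ADP-Glo luminescence gave % inhibition versus DMSO, fitted to IC50 over 10 threefold dilutions.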

SMILES | IC50 (PIP4K2B) [nM] | IC50 (PIP4K 2A [1]) [nM] | IC50 (PIP4K 2A [2]) [nM]
CC1Oc2cc(C(=O)N(C)C)ccc2-c2cnc(Nc3cccnc3)cc21 (centres unmarked) [Example 31, N,N,5-trimethyl-3-(pyridin-3-ylamino)-5H-chromeno[4,3-c]pyridine-8-carboxamide] | 100 to 1000 | 1 to 10 | 1 to 10
CC1Oc2cc(C(=O)N(C)C)ccc2-c2cnc(Nc3cncc(N4CCCC4=O)c3)cc21 (centres unmarked) [Example 32, N,N,5-trimethyl-3-((5-(2-oxopyrrolidin-1-yl)pyridin-3-yl)amino)-5H-chromeno[4,3-c]pyridine-8-carboxamide] | 10 to 100 | ≤ 1 | 1 to 10
CC1Oc2cc(C(=O)N(C)C)ccc2-c2cnc(Nc3cnc4c(c3)N3C(=O)CC[C@H]3CO4)cc21 (stereo partly drawn) [Example 33, N,N,5-trimethyl-3-(((S)-9-oxo-6a,7,8,9-tetrahydro-6H-pyrido[2,3-b]pyrrolo[1,2-d][1,4]oxazin-2-yl)amino)-5H-chromeno[4,3-c]pyridine-8-carboxamide] | 1 to 10 | ≤ 1 | 1 to 10
CN(C)C(=O)c1ccc2c(c1)OC(C1CC1)c1cc(Nc3cccnc3)ncc1-2 (centres unmarked) [Example 34, 5-cyclopropyl-N,N-dimethyl-3-(pyridin-3-ylamino)-5H-chromeno[4,3-c]pyridine-8-carboxamide] | 10 to 100 | 1 to 10 | 1 to 10
CN(C)C(=O)c1ccc2c(c1)OC(C1CC1)c1cc(Nc3cncc(N4CCCC4=O)c3)ncc1-2 (centres unmarked) [Example 35, 5-cyclopropyl-N,N-dimethyl-3-((5-(2-oxopyrrolidin-1-yl)pyridin-3-yl)amino)-5H-chromeno[4,3-c]pyridine-8-carboxamide] | 1 to 10 | ≤ 1 | 1 to 10
CN(C)C(=O)c1ccc2c(c1)OC(C1CC1)c1cc(Nc3cnc4c(c3)N3C(=O)CC[C@H]3CO4)ncc1-2 (stereo partly drawn) [Example 36, 5-cyclopropyl-N,N-dimethyl-3-(((S)-9-oxo-6a,7,8,9-tetrahydro-6H-pyrido[2,3-b]pyrrolo[1,2-d][1,4]oxazin-2-yl)amino)-5H-chromeno[4,3-c]pyridine-8-carboxamide] | 1 to 10 | ≤ 1 | ≤ 1
CC1c2cc(Nc3cccnc3)ncc2-c2ccc(C(=O)N(C)C)cc2N1C (centres unmarked) [Example 37, N,N,5,6-tetramethyl-3-(pyridin-3-ylamino)-5,6-dihydrobenzo[c][2,6]naphthyridine-8-carboxamide] | 100 to 1000 | 1 to 10 | 10 to 100
CC1Oc2cc(N3CCCC3=O)ccc2-c2cnc(Nc3cccnc3)cc21 (centres unmarked) [Example 38, 1-(5-methyl-3-(pyridin-3-ylamino)-5H-chromeno[4,3-c]pyridin-8-yl)pyrrolidin-2-one] | 100 to 1000 | 1 to 10 | 1 to 10
CC1Oc2cc(N3CCCC3=O)ccc2-c2cnc(Nc3cncc(C4(C#N)CC4)c3)cc21 (centres unmarked) [Example 39, 1-(5-((5-methyl-8-(2-oxopyrrolidin-1-yl)-5H-chromeno[4,3-c]pyridin-3-yl)amino)pyridin-3-yl)cyclopropane-1-carbonitrile] | 10 to 100 | ≤ 1 | 
CC1Oc2cc(N3CCCC3=O)ccc2-c2cnc(Nc3cnc4c(c3)N3C(=O)CC[C@H]3CO4)cc21 (stereo partly drawn) [Example 40, (6aS)-2-((5-methyl-8-(2-oxopyrrolidin-1-yl)-5H-chromeno[4,3-c]pyridin-3-yl)amino)-6,6a,7,8-tetrahydro-9H-pyrido[2,3-b]pyrrolo[1,2-d][1,4]oxazin-9-one] | 1 to 10 | ≤ 1 | ≤ 1
CC1Oc2cc(N3CCCC3=O)ccc2-c2cnc(Nc3cncc(OC(F)F)c3)cc21 (centres unmarked) [Example 41, 1-(3-((5-(difluoromethoxy)pyridin-3-yl)amino)-5-methyl-5H-chromeno[4,3-c]pyridin-8-yl)pyrrolidin-2-one] | > 1000 | 1 to 10 | 10 to 100
CC1Oc2cc(N3CCCC3=O)ccc2-c2cnc(Nc3cnc4c(c3)N3[C@H](CO4)CN(C)S3(=O)=O)cc21 (stereo partly drawn) [Example 187, 1-(5-methyl-3-(((S)-2-methyl-1,1-dioxido-2,3,3a,4-tetrahydropyrido[2,3-b][1,2,5]thiadiazolo[2,3-d][1,4]oxazin-8-yl)amino)-5H-chromeno[4,3-c]pyridin-8-yl)pyrrolidin-2-one] | 100 to 1000 | 10 to 100 | 
C[C@@H]1Oc2cc(N3CCCC3=O)ccc2-c2cnc(Nc3cnc4c(c3)N3C(=O)CC[C@H]3CO4)cc21 [Example 193, (S)-2-(((S)-5-methyl-8-(2-oxopyrrolidin-1-yl)-5H-chromeno[4,3-c]pyridin-3-yl)amino)-6,6a,7,8-tetrahydro-9H-pyrido[2,3-b]pyrrolo[1,2-d][1,4]oxazin-9-one] |  | ≤ 1 | ≤ 1
Cc1conc1-c1ccc2c(c1)OC(C)(C)c1cc(Nc3cnc4c(c3)N3C(=O)CC[C@H]3CO4)ncc1-2 [Example 209, (S)-2-((5,5-dimethyl-8-(4-methylisoxazol-3-yl)-5H-chromeno[4,3-c]pyridin-3-yl)amino)-6,6a,7,8-tetrahydro-9H-pyrido[2,3-b]pyrrolo[1,2-d][1,4]oxazin-9-one] | 1 to 10 | ≤ 1 | 
Cn1cnnc1-c1ccc2c(c1)OC(C)(C)c1nc(Nc3cnc4c(c3)N3C(=O)CC[C@H]3CO4)ncc1-2 [Example 210, (S)-2-((5,5-dimethyl-8-(4-methyl-4H-1,2,4-triazol-3-yl)-5H-chromeno[3,4-d]pyrimidin-3-yl)amino)-6,6a,7,8-tetrahydro-9H-pyrido[2,3-b]pyrrolo[1,2-d][1,4]oxazin-9-one] |  | ≤ 1 | 
Cn1cnnc1-c1ccc2c(c1)OC(C)(C)c1cc(Nc3cnc4c(c3)N3C(=O)CC[C@H]3CO4)ncc1-2 [Example 211, (S)-2-((5,5-dimethyl-8-(4-methyl-4H-1,2,4-triazol-3-yl)-5H-chromeno[4,3-c]pyridin-3-yl)amino)-6,6a,7,8-tetrahydro-9H-pyrido[2,3-b]pyrrolo[1,2-d][1,4]oxazin-9-one] | 1 to 10 | ≤ 1 | 
